Nine molecules from US20260285866A1, “MODULATORS OF TRPML, THEIR COMPOSITIONS AND METHODS OF USE” (Caraway Therapeutics, Inc., priority 2024, published 2026) can be followed below.

Holding throughout (type): cell-based
One assay addresses T1, Human TRPML2 (Homo sapiens, UniProt Q8IZK6).
T1 construct: expressed in transfected cells
T1 sequence (Q8IZK6 1-566): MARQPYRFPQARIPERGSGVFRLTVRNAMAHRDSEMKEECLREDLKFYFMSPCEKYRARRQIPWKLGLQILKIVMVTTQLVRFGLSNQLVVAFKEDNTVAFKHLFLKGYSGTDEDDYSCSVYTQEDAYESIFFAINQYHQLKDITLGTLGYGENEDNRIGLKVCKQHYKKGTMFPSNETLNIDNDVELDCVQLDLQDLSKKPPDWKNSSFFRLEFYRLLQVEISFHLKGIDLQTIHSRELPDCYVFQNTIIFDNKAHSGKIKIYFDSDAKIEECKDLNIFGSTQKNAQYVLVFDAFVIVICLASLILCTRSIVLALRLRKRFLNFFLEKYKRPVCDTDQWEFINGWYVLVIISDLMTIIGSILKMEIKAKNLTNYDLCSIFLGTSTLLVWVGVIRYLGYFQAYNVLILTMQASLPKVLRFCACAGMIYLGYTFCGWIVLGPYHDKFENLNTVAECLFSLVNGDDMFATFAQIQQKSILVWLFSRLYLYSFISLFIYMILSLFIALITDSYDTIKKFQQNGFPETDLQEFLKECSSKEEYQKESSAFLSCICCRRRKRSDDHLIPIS
In words: Fluorescent TRPML2 assay (as for TRPML1). The conditions noted are these: fluorescent calcium assay as for TRPML1, TRPML2 subtype. As for the experimental part:
HEK-293 Trex cells were stably transfected with a construct consisting of the human coding sequence for TRPML1 cloned into the tet-inducible plasmid pCDNA5 T/O. Mutations were introduced into the TRPML1 sequence to facilitate expression on the cell surface (Silvia Vergarajauregui, Rosa Puertollano Traffic. 2006 March; 7(3): 337-353). Briefly, the cells are cultured in 150 mm round tissue culture dishes containing 20 mL of media. The day before the assay the cells are rinsed with DPBS-Ca-Mg and then treated briefly with Trypsin-EDTA. The Trypsin-EDTA is diluted with growth media, and cells are counted. 38×10^6 cells are re-plated into 150 mm round tissue culture dishes in media containing 0.5 μg/mL doxycycline to induce expression of hTRPML1.
The day of the experiment cells are lifted from the plates as above and collected by centrifugation. The cells are then suspended in dye loading buffer consisting of Ringer's solution supplemented with 0.1% Pluronic Acid and 1 micromolar Fluo4-AM dye. Cells are loaded for ~60 minutes in the dark with occasional mixing. The cells are collected by centrifugation, the loading media aspirated, and the cells resuspended in 25 mL Ringer's solution and incubated ~60 minutes in the dark. The cells are again collected by centrifugation, rinsed in Ringer's Solution and resuspended to 0.2×10^6 cells/mL in modified Ringer's solution containing 10 mM calcium.
Compounds are dissolved to a concentration of 10 millimolar with DMSO. Compound plates are created by dispensing compounds into 384 well black wall clear bottom plates (Greiner 781091). Positive and negative controls are included on each plate. Typically, different amounts of each compound are tested ranging from 100 nanoMoles (20 micromolar final concentration) decreasing in half-log steps to 31 picoMoles (6 nanomolar final concentration). Each concentration is typically tested in triplicate.
50 microliters of dye-loaded cells are dispensed into each well of the compound assay plate created above. The fluorescence in each well is then determined with an excitation wavelength of 480 nm and an emission wavelength of 540 nm using either a Molecular Devices SpectraMax multimode plate reader or a Hamamatsu FDSS/uCell plate imager.
The resulting fluorescence for each well is exported as an ascii file and loaded into our LIMS for analysis. The percent activity of each compound at each concentration is determined by comparison to the positive and negative control wells included in each plate.
Assays for TRPML2 and TRPML3 were performed as above for TRPML1, by substituting the appropriate TRPML2 or TRPML3 subtype for the TRPML1.
EC50 values were calculated using a non-linear regression of Prism. In the table, “A” indicates an EC50 of less than 100 nM, “B” indicates an EC50 range from 100 nM to 500 nM: “C” indicates an EC50 range from 500 nM to 2 μM; and “D” indicates an EC50 greater than 2 μM.

For another assay, the target named is Human TRPML1 (Homo sapiens, UniProt Q9GZU1, L15A/L16A/L577A/L578A). Put plainly: Fluorescent TRPML1 assay (Fluo4-AM, HEK-293 Trex cells expressing hTRPML1). The following applies: fluorescent calcium assay, doxycycline-induced hTRPML1. In outline: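 Doxycycline-induced (0.5 μg/mL) HEK-293 Trex cells stably expressing surface-targeted mutant hTRPML1, loaded with 1 μM Fluo4-AM, then suspended in modified Ringer's with 10 mM calcium and added to compounds (20 μM to 6 nM final, half-log steps, triplicate). Fluorescence read at ex 480/em 540; percent activity versus plate controls, EC50 by non-linear regression.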
Human TRPML1, sequence (Q9GZU1 whole entry L15A/L16A/L577A/L578A): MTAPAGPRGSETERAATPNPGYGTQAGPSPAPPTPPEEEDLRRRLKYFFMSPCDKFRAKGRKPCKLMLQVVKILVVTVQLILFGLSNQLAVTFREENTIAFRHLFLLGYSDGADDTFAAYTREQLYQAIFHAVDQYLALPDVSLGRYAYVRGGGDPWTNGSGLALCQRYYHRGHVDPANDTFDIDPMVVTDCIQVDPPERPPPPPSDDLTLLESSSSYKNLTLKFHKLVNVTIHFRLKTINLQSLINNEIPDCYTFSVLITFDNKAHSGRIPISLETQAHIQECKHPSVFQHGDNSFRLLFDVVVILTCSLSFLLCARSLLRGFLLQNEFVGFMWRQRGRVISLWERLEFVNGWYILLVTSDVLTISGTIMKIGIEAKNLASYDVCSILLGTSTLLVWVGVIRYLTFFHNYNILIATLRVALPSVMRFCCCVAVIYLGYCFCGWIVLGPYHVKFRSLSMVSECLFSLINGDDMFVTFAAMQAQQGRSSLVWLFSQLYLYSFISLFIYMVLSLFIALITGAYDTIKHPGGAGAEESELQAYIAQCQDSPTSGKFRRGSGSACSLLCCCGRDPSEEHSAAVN

Another assay has as its target T2, Human TRPML3 (Homo sapiens, UniProt Q8TDD5).
T2 construct: expressed in transfected cells
T2 sequence (Q8TDD5 1-553): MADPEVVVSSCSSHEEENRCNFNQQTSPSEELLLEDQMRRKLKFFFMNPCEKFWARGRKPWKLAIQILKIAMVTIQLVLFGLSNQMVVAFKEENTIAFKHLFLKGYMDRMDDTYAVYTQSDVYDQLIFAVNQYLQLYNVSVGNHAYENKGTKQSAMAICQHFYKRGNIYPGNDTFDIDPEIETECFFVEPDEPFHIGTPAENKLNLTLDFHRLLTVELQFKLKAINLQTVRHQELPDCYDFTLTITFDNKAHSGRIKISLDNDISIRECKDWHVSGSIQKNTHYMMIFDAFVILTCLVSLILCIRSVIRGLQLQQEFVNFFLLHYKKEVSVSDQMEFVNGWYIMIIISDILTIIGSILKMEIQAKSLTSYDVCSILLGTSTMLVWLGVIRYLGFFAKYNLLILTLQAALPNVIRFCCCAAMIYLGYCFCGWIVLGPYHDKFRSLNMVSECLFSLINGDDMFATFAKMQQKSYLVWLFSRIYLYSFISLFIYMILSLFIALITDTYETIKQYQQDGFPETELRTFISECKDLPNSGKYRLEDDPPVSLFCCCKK
Put plainly: Fluorescent TRPML3 assay (as for TRPML1). The conditions noted are these: fluorescent calcium assay as for TRPML1, TRPML3 subtype. The essentials: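 Tet-inducible HEK-293 Trex cells expressing human TRPML2 or TRPML3, induced overnight with 0.5 μg/mL doxycycline, loaded with 1 μM Fluo4-AM and suspended in Ringer's solution with 10 mM calcium. Compounds tested in triplicate from 20 μM to 6 nM final in half-log steps; fluorescence at 480/540 nm. EC50 by non-linear regression, binned A–D.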

Each structure is given as a SMILES string. Bounds are passed on as bounds.

Broadly, the EC50 is the concentration giving half of the maximal effect. `CCOC(C)(C)C(=O)N1C[C@H](C)N(c2ncnc3c2c(N2CCC2)cn3-c2cc(C#N)ccn2)C[C@H]1C` [Compound 173]: the values for the EC50 on Human TRPML2, at Human TRPML1 and at Human TRPML3 were 500 to 2000 nM, < 100 nM and 100 to 500 nM, respectively.

Turning to `CCOC(C)(C)C(=O)N1C[C@H](C)N(c2ncnc3c2c(C2CC2)cn3-c2cc(C#N)ccn2)C[C@H]1C` [Compound 172, 2-(5-cyclopropyl-4-((2S,5R)-4-(2-ethoxy-2-methylpropanoyl)-2,5-dimethylpiperazin-1-yl)-7H-pyrrolo[2,3-d]pyrimidin-7-yl)isonicotinonitrile], the EC50 on Human TRPML2 is 500 to 2000 nM; on Human TRPML1, < 100 nM; at Human TRPML3 it was 500 to 2000 nM.

As to `Cc1cnccc1-c1cn(-c2cc(C#N)ccn2)c2ncnc(N3C[C@@H](C)N(C(=O)C(C)(C)O)C[C@@H]3C)c12` [Compound 147, 2-(4-((2S,5R)-4-(2-hydroxy-2-methylpropanoyl)-2,5-dimethylpiperazin-1-yl)-5-(3-methylpyridin-4-yl)-7H-pyrrolo[2,3-d]pyrimidin-7-yl)isonicotinonitrile], the 50% effective concentration (EC50) on Human TRPML2 is > 2000 nM; on Human TRPML1, 500 to 2000 nM; on Human TRPML3 it was 500 to 2000 nM.

With `CCOC(C)(C)C(=O)N1C[C@H](C)N(c2ncnc3c2c(-c2ccncc2)cn3-c2cc(C#N)ccn2)C[C@H]1C` [Compound 171, -(4-((2S,5R)-4-(2-ethoxy-2-methylpropanoyl)-2,5-dimethylpiperazin-1-yl)-5-(pyridin-4-yl)-7H-pyrrolo[2,3-d]pyrimidin-7-yl)isonicotinonitrile], the concentration giving a half-maximal response (EC50) at Human TRPML2 is > 2000 nM; at Human TRPML1 it was 100 to 500 nM; on Human TRPML3, 500 to 2000 nM.

On to `COC1(C(=O)N2C[C@H](C)N(c3ncnc4c3c(-c3ccccc3F)cn4-c3cc(C#N)ccn3)C[C@H]2C)CN(C)C1` [Compound 163, 2-(5-(2-fluorophenyl)-4-((2S,5R)-4-(3-methoxy-1-methylazetidine-3-carbonyl)-2,5-dimethylpiperazin-1-yl)-7H-pyrrolo[2,3-d]pyrimidin-7-yl)isonicotinonitrile], for which the values for the concentration giving a half-maximal response (EC50) at Human TRPML2, at Human TRPML1 and on Human TRPML3 were > 2000 nM, < 100 nM and < 100 nM, respectively.

As for `C[C@@H]1CN(c2ncnc3c2c(-c2ccccc2)cn3-c2cc(C#N)ccn2)[C@@H](C)CN1C(=O)CC(C)(C)O` [Compound 159, 2-(4-((2S,5R)-4-(3-hydroxy-3-methylbutanoyl)-2,5-dimethylpiperazin-1-yl)-5-phenyl-7H-pyrrolo[2,3-d]pyrimidin-7-yl)isonicotinonitrile], the EC50 at Human TRPML2 is 500 to 2000 nM; on Human TRPML1, < 100 nM; at Human TRPML3 it was 100 to 500 nM.

Turning to `C[C@@H]1CN(c2ncnc3c2c(-n2cccn2)cn3-c2cc(C#N)ccn2)[C@@H](C)CN1C(=O)C(C)(C)O` [Compound 133, 2-(4-((2S,5R)-4-(2-hydroxy-2-methylpropanoyl)-2,5-dimethylpiperazin-1-yl)-5-(1H-pyrazol-1-yl)-7H-pyrrolo[2,3-d]pyrimidin-7-yl)isonicotinonitrile], the half-maximal effective concentration (EC50) at Human TRPML2 is > 2000 nM; at Human TRPML1, 500 to 2000 nM; at Human TRPML3 it was 500 to 2000 nM.

For the molecule `C[C@@H]1CN(c2ncnc3c2c(-c2ccncc2)cn3-c2cccc(OC(F)(F)F)c2)[C@@H](C)CN1C(=O)C(C)(C)O` [Compound 148, 1-((2R,5S)-2,5-dimethyl-4-(5-(pyridin-4-yl)-7-(3-(trifluoromethoxy)phenyl)-7H-pyrrolo[2,3-d]pyrimidin-4-yl)piperazin-1-yl)-2-hydroxy-2-methylpropan-1-one], the EC50 on Human TRPML2 is > 2000 nM; on Human TRPML1, 500 to 2000 nM; on Human TRPML3, > 2000 nM.

Take `CCC(O)(CC)C(=O)N1C[C@H](C)N(c2ncnc3c2c(-c2ccccc2)cn3-c2cc(C#N)ccn2)C[C@H]1C` [Compound 108, 2-(4-((2S,5R)-4-(2-ethyl-2-hydroxybutanoyl)-2,5-dimethylpiperazin-1-yl)-5-phenyl-7H-pyrrolo[2,3-d]pyrimidin-7-yl)isonicotinonitrile]: the results for the EC50 on Human TRPML2, at Human TRPML1 and on Human TRPML3 were 500 to 2000 nM, < 100 nM and 100 to 500 nM, respectively.
